Experimental data: US20080085315A1, “Amorphous ezetimibe and the production thereof” (priority 2006, published 2008)

Columns and labels:
[1] = Pharmacokinetics in fasted male Sprague Dawley rats, single dose; format: in vivo; settings: rat, po, analyte EZE in plasma, single dose 100 mg/kg crystalline EZE or equivalent amount of amorphous EZE
Protocol: The pharmacokinetics of crystalline EZE and the amorphous 1 EZE: 3 PVP+2% SLS spray dried powder were studied in male Sprague Dawley rats in the fasted state. Six rats were single-dosed with either 100 mg/kg crystalline EZE or an equivalent amount of the amorphous EZE of Example 2.

[2] = cited from earlier work

SMILES: O=C1[C@H](CC[C@H](O)c2ccc(F)cc2)[C@@H](c2ccc(O)cc2)N1c1ccc(F)cc1 [crystalline, 1-(4-fluorophenyl)-3(R)-[3-(4-fluorophenyl)-3(S)-hydroxypropyl]-4(S)-(4-hydroxyphenyl)-2-azetidinone]
- Cmax [1]: 5.1 ng/mL
- Tmax [1]: 8 h
- AUC(0-t) ([1]; read-out: AUC0-24 h): 64.2 ng·h/mL
- solubility in water [2]: insoluble in water
